Source: patent US9102670B2, “Pyrido-, pyrazo- and pyrimido-pyrimidine derivatives as mTOR inhibitors” (KuDOS Pharmaceuticals Limited, priority 2006, dated 2015)
Like-named read-outs stand apart in the source and are kept apart here.

Test system: phosphorylation of Serine 473 in Akt
Assay: In Vitro Phospho-Ser473 Akt Assay in MDA-MB-468 cells
Type: cell-based
Settings: Homo sapiens
[1] = MDA-MB-468, read-out: IC50 values against mTOR, phospho-Ser473 Akt assay, MDA-MB-468 cells
[2] = MDA-MB-468, read-out: IC50 values against mTOR, phospho-Ser473 Akt assay, MDA-MB-468 cells, upper bound

| SMILES | IC50 [1] [nM] | IC50 [2] [nM] |
| --- | --- | --- |
| COc1ccc(-c2ccc3c(N4CCOC[C@@H]4C)nc(N4CCC[C@H](O)C4)nc3n2)cc1CO [Example 18bj] | < 100 |  |
| COc1ccc(-c2ccc3c(N4CCOC[C@@H]4C)nc(N4CCC[C@@H](O)C4)nc3n2)cc1CO [Example 18bk] | < 100 |  |
| COc1ccc(-c2ccc3c(N4CCOC[C@@H]4C)nc(N4CCOc5ccccc54)nc3n2)cc1CO [Example 18bl] | < 300 |  |
| COc1ccc(-c2ccc3c(N4CCOC[C@@H]4C)nc(N4CCCCC4CO)nc3n2)cc1CO (stereo partly drawn) [Example 18bm] | < 100 |  |
| COc1ccc(-c2ccc3c(N4CCOC[C@@H]4C)nc(N4CC[C@@H](O)C4)nc3n2)cc1CO [Example 18bn] | < 100 |  |
| COC[C@@H](C)Nc1nc(N2CCOC[C@@H]2C)c2ccc(-c3ccc(OC)c(CO)c3)nc2n1 [Example 18bo] | < 100 |  |
| CNc1nc(N2CCOC[C@@H]2C)c2ccc(-c3ccc(OC)c(CO)c3)nc2n1 [Example 18bp] |  | < 1000 |
| CCNc1nc(N2CCOC[C@@H]2C)c2ccc(-c3ccc(OC)c(CO)c3)nc2n1 [Example 18bq] | < 300 |  |
| COc1ccc(-c2ccc3c(N4CCOC[C@@H]4C)nc(NC(C)C)nc3n2)cc1CO [Example 18br] | < 100 |  |
| COc1ccc(-c2ccc3c(N4CCOC[C@@H]4C)nc(NCCO)nc3n2)cc1CO [Example 18bs] |  | < 1000 |
| COc1ccc(-c2ccc3c(N4CCOC[C@@H]4C)nc(NCCF)nc3n2)cc1CO [Example 18bt] | < 300 |  |
| CNCCNc1nc(N2CCOC[C@@H]2C)c2ccc(-c3ccc(OC)c(CO)c3)nc2n1 [Example 18bv] |  | < 1000 |
| COc1ccc(-c2ccc3c(N4CCOC[C@@H]4C)nc(N[C@H](C)CO)nc3n2)cc1CO [Example 18bw] | < 100 |  |
| COc1ccc(-c2ccc3c(N4CCOC[C@@H]4C)nc(N[C@@H](C)CO)nc3n2)cc1CO [Example 18bx] | < 300 |  |
| COCCNc1nc(N2CCOC[C@@H]2C)c2ccc(-c3ccc(OC)c(CO)c3)nc2n1 [Example 18by] |  | < 1000 |
| COc1ccc(-c2ccc3c(N4CCOC[C@@H]4C)nc(NCC(F)F)nc3n2)cc1CO [Example 18bz] | < 300 |  |
| COc1ccc(-c2ccc3c(N4CCOC[C@@H]4C)nc(N4CCCCC4)nc3n2)cc1CO [Example 18c] | < 100 |  |
| COc1ccc(-c2ccc3c(N4CCOC[C@@H]4C)nc(N4CCNCC4)nc3n2)cc1CO [Example 18ca] | < 300 |  |
| COc1ccc(-c2ccc3c(N4CCOC[C@@H]4C)nc(NCCN(C)C)nc3n2)cc1CO [Example 18cb] |  | < 1000 |
| COc1ccc(-c2ccc3c(N4CCOC[C@@H]4C)nc(NC(C)(C)CO)nc3n2)cc1CO [Example 18cc] | < 100 |  |
| COc1ccc(-c2ccc3c(N4CCOC[C@@H]4C)nc(NC(CO)CO)nc3n2)cc1CO [Example 18cd] | < 300 |  |
| COc1ccc(-c2ccc3c(N4CCOC[C@@H]4C)nc(N4CCNC(=O)C4)nc3n2)cc1CO [Example 18cf] | < 100 |  |
| COc1ccc(-c2ccc3c(N4CCOC[C@@H]4C)nc(N4CCN(C)CC4)nc3n2)cc1CO [Example 18cg] | < 300 |  |
| COc1ccc(-c2ccc3c(N4CCOC[C@@H]4C)nc(N4CCSCC4)nc3n2)cc1CO [Example 18ch] | < 100 |  |
| COCCN(CCOC)c1nc(N2CCOC[C@@H]2C)c2ccc(-c3ccc(OC)c(CO)c3)nc2n1 [Example 18cj] | < 100 |  |

| SMILES | IC50 [1] [nM] | IC50 [2] [nM] |
| --- | --- | --- |
| COc1ccc(-c2ccc3c(N4CCOC[C@@H]4C)nc(N(CCO)CCO)nc3n2)cc1CO [Example 18ck] | < 100 |  |
| COc1ccc(-c2ccc3c(N4CCOC[C@@H]4C)nc(N4CCC[C@@H]4CO)nc3n2)cc1CO [Example 18cm] | < 100 |  |
| COc1ccc(-c2ccc3c(N4CCOC[C@@H]4C)nc(-n4ccnc4C)nc3n2)cc1CO [Example 18cn] | < 300 |  |
| COc1ccc(-c2ccc3c(N4CCOC[C@@H]4C)nc(N4CCNC(=O)C4C)nc3n2)cc1CO (stereo partly drawn) [Example 18co] | < 100 |  |
| COc1ccc(-c2ccc3c(N4CCOC[C@@H]4C)nc(N(C)CCO)nc3n2)cc1CO [Example 18cr] | < 100 |  |
| COc1ccc(-c2ccc3c(N4CCOC[C@@H]4C)nc(N(CCO)C(C)C)nc3n2)cc1CO [Example 18cs] | < 100 |  |
| COc1ccc(-c2ccc3c(N4CCOC[C@@H]4C)nc(NC(C)CN(C)C)nc3n2)cc1CO (stereo partly drawn) [Example 18ct] |  | < 1000 |
| CCOc1nc(N2CCOC[C@@H]2C)c2ccc(-c3ccc(OC)c(CO)c3)nc2n1 [Example 18cv] |  | < 1000 |
| COCCOc1nc(N2CCOC[C@@H]2C)c2ccc(-c3ccc(OC)c(CO)c3)nc2n1 [Example 18cx] | < 300 |  |
| COc1ccc(-c2ccc3c(N4CCOC[C@@H]4C)nc(N4CCCCCC4)nc3n2)cc1CO [Example 18d] | < 100 |  |
| CNCCOc1nc(N2CCOC[C@@H]2C)c2ccc(-c3ccc(OC)c(CO)c3)nc2n1 [Example 18db] | < 100 |  |
| COc1ccc(-c2ccc3c(N4CCOC[C@@H]4C)nc(N4CCCCO4)nc3n2)cc1CO [Example 18dd] | < 300 |  |
| C[C@H]1CCCCN1c1nc(N2CCOC[C@@H]2C)c2ccc(-c3ccc(Cl)cc3)nc2n1 [Example 18de] |  | < 1000 |
| C[C@@H]1CCCCN1c1nc(N2CCOC[C@@H]2C)c2ccc(-c3ccc(Cl)cc3)nc2n1 [Example 18dg] |  | < 1000 |
| C[C@@H]1CN(c2nc(N3CCOC[C@@H]3C)c3ccc(-c4ccc(Cl)cc4)nc3n2)C[C@H](C)O1 [Example 18dh] | < 300 |  |
| C[C@H]1COCCN1c1nc(N2CCOCC2)nc2nc(-c3ccc(Cl)cc3)ccc12 [Example 18di] | < 300 |  |
| C[C@H]1COCCN1c1nc(N2CCC(C(N)=O)CC2)nc2nc(-c3ccc(Cl)cc3)ccc12 [Example 18dj] |  | < 1000 |
| COc1ccc(-c2ccc3c(N4CCOC[C@@H]4C)nc(N4CCCCC(N)C4)nc3n2)cc1CO (stereo partly drawn) [Example 18e] | < 300 |  |
| COc1ccc(-c2ccc3c(N4CCOC[C@@H]4C)nc(N4CCC(c5cccc(O)c5)CC4)nc3n2)cc1CO [Example 18f] | < 100 |  |
| COc1ccc(-c2ccc3c(N4CCOC[C@@H]4C)nc(N4CCC(CCO)CC4)nc3n2)cc1CO [Example 18g] | < 100 |  |
| COc1ccc(-c2ccc3c(N4CCOC[C@@H]4C)nc(N4CCCC(C(F)(F)F)C4)nc3n2)cc1CO (stereo partly drawn) [Example 18h] | < 300 |  |
| COc1ccc(-c2ccc3c(N4CCOC[C@@H]4C)nc(N4CCCC(C)C4)nc3n2)cc1CO (stereo partly drawn) [Example 18i] | < 100 |  |
| COc1ccc(-c2ccc3c(N4CCOC[C@@H]4C)nc(N4CCCC(c5ccccc5)C4)nc3n2)cc1CO (stereo partly drawn) [Example 18j] |  | < 1000 |
| COc1ccc(-c2ccc3c(N4CCOC[C@@H]4C)nc(N4CCCC(O)C4)nc3n2)cc1CO (stereo partly drawn) [Example 18k] | < 100 |  |
| COc1ccc(-c2ccc3c(N4CCOC[C@@H]4C)nc(Nc4ccccc4)nc3n2)cc1CO [Example 18m] | < 100 |  |

| SMILES | IC50 [1] [nM] | IC50 [2] [nM] |
| --- | --- | --- |
| COc1ccc(-c2ccc3c(N4CCOC[C@@H]4C)nc(Nc4ccncn4)nc3n2)cc1CO [Example 18n] |  | < 1000 |
| COc1ccc(-c2ccc3c(N4CCOC[C@@H]4C)nc(Nc4cccnc4)nc3n2)cc1CO [Example 18o] |  | < 1000 |
| COc1ccc(-c2ccc3c(N4CCOC[C@@H]4C)nc(Nc4ccccn4)nc3n2)cc1CO [Example 18p] | < 300 |  |
| COc1ccc(-c2ccc3c(N4CCOC[C@@H]4C)nc(N4CCCC4)nc3n2)cc1CO [Example 18q] | < 100 |  |
| CCOC(=O)C1CCCN(c2nc(N3CCOC[C@@H]3C)c3ccc(-c4ccc(OC)c(CO)c4)nc3n2)C1 (stereo partly drawn) [Example 18r] | < 100 |  |
| COc1ccc(-c2ccc3c(N4CCOC[C@@H]4C)nc(N4CCC(CN)CC4)nc3n2)cc1CO [Example 18s] | < 100 |  |
| COc1ccc(-c2ccc3c(N4CCOC[C@@H]4C)nc(N4CCC(C)CC4)nc3n2)cc1CO [Example 18t] | < 100 |  |
| CCOC(=O)C1CCN(c2nc(N3CCOC[C@@H]3C)c3ccc(-c4ccc(OC)c(CO)c4)nc3n2)CC1 [Example 18u] | < 100 |  |
| COc1ccc(-c2ccc3c(N4CCOC[C@@H]4C)nc(N4CCC(C(N)=O)CC4)nc3n2)cc1CO [Example 18v] | < 100 |  |
| COc1ccc(C(=O)C2CCN(c3nc(N4CCOC[C@@H]4C)c4ccc(-c5ccc(OC)c(CO)c5)nc4n3)CC2)cc1 [Example 18w] | < 300 |  |
| COc1ccc(-c2ccc3c(N4CCOC[C@@H]4C)nc(N4CCC(CO)CC4)nc3n2)cc1CO [Example 18x] | < 100 |  |
| COc1ccc(-c2ccc3c(N4CCOC[C@@H]4C)nc(N4CCCC(CO)C4)nc3n2)cc1CO (stereo partly drawn) [Example 18y] | < 100 |  |
| COc1ccc(-c2ccc3c(N4CCOC[C@@H]4C)nc(N4CCC(N5CCCCC5)CC4)nc3n2)cc1CO [Example 18z] |  | < 1000 |
| COc1ccc(-c2ccc3c(N4CCOC[C@@H]4C)nc(-c4cccc(C=O)c4)nc3n2)cc1CO [Example 19b] | < 300 |  |
| COc1ccc(-c2ccc3c(N4CCOC[C@@H]4C)nc(-c4cccc(CO)c4)nc3n2)cc1CO [Example 19c] | < 300 |  |
| COc1ccc(-c2ccc3c(N4CCOC[C@@H]4C)nc(-c4cccc(CN)c4)nc3n2)cc1CO [Example 19e] |  | < 1000 |
| COC(=O)c1cccc(-c2nc(N3CCOC[C@@H]3C)c3ccc(-c4ccc(OC)c(CO)c4)nc3n2)c1 [Example 19h] |  | < 1000 |
| COc1ccc(-c2ccc3c(N4CCOC[C@@H]4C)nc(-c4cccc([N+](=O)[O-])c4)nc3n2)cc1CO [Example 19i] |  | < 1000 |
| COc1ccc(-c2ccc3c(N4CCOC[C@@H]4C)nc(-c4cccnc4)nc3n2)cc1CO [Example 19j] | < 100 |  |
| COc1ccc(-c2ccc3c(N4CCOC[C@@H]4C)nc(-c4cccc(C(N)=O)c4)nc3n2)cc1CO [Example 19k] | < 300 |  |
| COCc1cccc(-c2nc(N3CCOC[C@@H]3C)c3ccc(-c4ccc(OC)c(CO)c4)nc3n2)c1 [Example 19l] |  | < 1000 |
| COc1ccc(-c2ccc3c(N4CCOC[C@@H]4C)nc(-c4cccc(C(F)(F)F)c4)nc3n2)cc1CO [Example 19m] |  | < 1000 |
| COc1ccc(-c2ccc3c(N4CCOC[C@@H]4C)nc(-c4cccc(C)c4)nc3n2)cc1CO [Example 19n] |  | < 1000 |
| COc1cccc(-c2nc(N3CCOC[C@@H]3C)c3ccc(-c4ccc(OC)c(CO)c4)nc3n2)c1 [Example 19o] |  | < 1000 |
| COc1ccc(-c2nc(N3CCOC[C@@H]3C)c3ccc(-c4cccc(CO)c4)nc3n2)cn1 [Example 19p] | < 100 |  |
